Assay results reported in ChEMBL document CHEMBL5344418, “Recent developments in antimalarial activities of 4-aminoquinoline derivatives” (Eur J Med Chem, 2023).

Assays:
Plasmodium falciparum [1] = test: Antimalarial activity against Plasmodium falciparum assessed as parasitic growth inhibition; assay type: functional, organism-based
Plasmodium falciparum [2] = test: Antimalarial activity against chloroquine-resistant Plasmodium falciparum Dd2 assessed as inhibition of parasite growth; assay type: functional, organism-based
Plasmodium falciparum [3] = test: Antimalarial activity against Plasmodium falciparum 3D7 assessed as inhibition of parasite growth incubated for 96 hrs; assay type: functional, organism-based; conditions: 3D7, 96 h
Plasmodium falciparum [4] = test: Antimalarial activity against chloroquine-sensitive Plasmodium falciparum 3D7 by SYBR green I assay; assay type: functional, organism-based
Plasmodium falciparum [5] = test: Antimalarial activity against chloroquine-resistant Plasmodium falciparum Dd2 assessed as reduction in parasitic growth incubated for 72 hrs by Giemsa-staining based microscopic analysis; assay type: functional, organism-based; conditions: Dd2, 72 h
Plasmodium berghei [6] = test: Antimalarial activity against Plasmodium berghei ANKA; assay type: functional, organism-based
Plasmodium falciparum [7] = test: Antimalarial activity against Plasmodium falciparum 3D7 assessed as reduction in parasite growth incubated for 48 hrs by Giemsa-staining counting based microscopic analysis; assay type: functional, organism-based; conditions: 3D7, 48 h
[8] = Cytotoxicity against African green monkey Vero cells assessed as reduction in cell viability incubated for 48 hrs by MTT assay; assay type: toxicity, cell-based; conditions: chlorocebus sabaeus
Plasmodium falciparum [9] = test: Antimalarial activity against Plasmodium falciparum K1 assessed as reduction in parasitic growth incubated for 48 hrs by Giemsa-staining counting based microscopic analysis; assay type: functional, organism-based; conditions: K1, 48 h
[10] = Cytotoxicity against African green monkey Vero cells by MTT assay; assay type: toxicity, cell-based; conditions: African green monkey (Chlorocebus sabaeus)
Plasmodium falciparum [11] = test: Antiplasmodial activity against Plasmodium falciparum NF54; assay type: functional, organism-based
Plasmodium falciparum [12] = test: Antiplasmodial activity against Plasmodium falciparum K1 infected in human Erythrocyte measured after 72 hrs by SYBR green fluorescence dye based microplate reader analysis; assay type: functional, organism-based
Plasmodium falciparum [13] = test: Antiplasmodial activity against Plasmodium falciparum Dd2 infected in human Erythrocyte measured after 72 hrs by SYBR green fluorescence dye based microplate reader analysis; assay type: functional, organism-based
Plasmodium falciparum [14] = test: Antiplasmodial activity against chloroquine-sensitive Plasmodium falciparum 3D7 infected in human erythrocyte incubated for 72 hrs by SYBR green I staining based fluorescence assay; assay type: functional, organism-based; conditions: 3D7, Erythrocyte
Plasmodium falciparum [15] = test: Antiplasmodial activity against chloroquine-resistant Plasmodium falciparum W2 assessed as parasitic growth inhibition incubated for 72 hrs by SYBR Green staining based fluorescence analysis; assay type: functional, organism-based; conditions: W2, 72 h
[16] = Cytotoxicity against African green monkey Vero cells assessed as reduction in cell viability measured after 24 hrs; assay type: toxicity, cell-based; conditions: African green monkey (Chlorocebus sabaeus)
Plasmodium falciparum [17] = test: Antiplasmodial activity against chloroquine-sensitive Plasmodium falciparum 3D7 assessed as parasitic growth inhibition incubated for 72 hrs by SYBR Green staining based fluorescence analysis; assay type: functional, organism-based; conditions: 3D7, 72 h
Plasmodium falciparum [18] = test: Antimalarial activity against chloroquine-sensitive Plasmodium falciparum 3D7 assessed as reduction in parasite growth incubated for 48 hrs by SYBR green assay; assay type: functional, organism-based; conditions: 3D7, 48 h
Plasmodium falciparum [19] = test: Antimalarial activity against multi-drug resistant Plasmodium falciparum K1 assessed as reduction in parasite growth incubated for 48 hrs by SYBR green assay; assay type: functional, organism-based; conditions: K1, 48 h
HepG2 [20] = test: Cytotoxicity against human HepG2 cells assessed as reduction in cell viability incubated for 24 hrs by MTT assay; assay type: functional
Plasmodium falciparum [21] = test: Antimalarial activity against Plasmodium falciparum D6 assessed as reduction in parasite growth incubated for 48 hrs by LDH assay; assay type: functional, organism-based; conditions: D6, 48 h
Plasmodium falciparum [22] = test: Antimalarial activity against Plasmodium falciparum W2 assessed as reduction in parasite growth incubated for 48 hrs by LDH assay; assay type: functional, organism-based; conditions: W2, 48 h
[23] = Cytotoxicity against African green monkey Vero cells; assay type: toxicity, cell-based; conditions: chlorocebus sabaeus
Plasmodium falciparum [24] = test: Antiplasmodial activity against Plasmodium falciparum 3D7 assessed as inhibition of parasitic growth; assay type: functional, organism-based
Plasmodium falciparum [25] = test: Antimalarial activity against Plasmodium falciparum Dd2 assessed as reduction in parasitic growth; assay type: functional, organism-based
Plasmodium falciparum [26] = test: Antimalarial activity against chloroquine resistant Plasmodium falciparum FcB1/Colombia assessed as inhibition of parasite growth incubated for 24 hrs by liquid scintillation spectrometer analysis; assay type: functional, organism-based
Plasmodium falciparum [27] = test: Antiplasmodial activity against Plasmodium falciparum 3D7 infected in human erythrocytes assessed as growth inhibition after 72 hrs by SYBR Gren-I fluorescent dye based method; assay type: functional, organism-based; conditions: 3D7, 72 h
Plasmodium falciparum [28] = test: Antimalarial activity against drug sensitive Plasmodium falciparum NF54 assessed as inhibition of parasite growth; assay type: functional, organism-based
HepG2 [29] = test: Cytotoxicity against human HepG2 cells assessed as cell growth inhibition measured after 72 hrs by MTT assay; assay type: functional
Plasmodium falciparum [30] = test: Antimalarial activity against Plasmodium falciparum K1 assessed as inhibition of parasitic growth; assay type: functional, organism-based
Plasmodium falciparum [31] = test: Antimalarial activity against CQ-resistant Plasmodium falciparum RKL9; assay type: functional, organism-based
Plasmodium falciparum [32] = test: Antimalarial activity against Plasmodium falciparum 3D7 assessed as inhibition of parasite growth; assay type: functional, organism-based
Plasmodium falciparum [33] = test: Antimalarial activity against chloroquine-resistant Plasmodium falciparum W2 assessed as growth inhibition incubated for 48 hrs by flow cytometry based analysis; assay type: functional, organism-based; conditions: W2, 48 h
Plasmodium falciparum [34] = test: Antimalarial activity against chloroquine-sensitive Plasmodium falciparum NF54 assessed as reduction in cell growth; assay type: functional, organism-based
[35] = Cytotoxicity against African monkey Vero cells assessed as reduction in cell viability incubated for 72 hrs by MTT assay; assay type: toxicity, cell-based; conditions: chlorocebus sabaeus
Plasmodium berghei [36] = test: Antimalarial activity against liver stage Plasmodium berghei; assay type: functional, organism-based

## Clc1ccc2c(Nc3cccnc3)ccnc2c1
Plasmodium falciparum [1]
  IC50: 4350 nM

## O=C(O)CCCCCCCCCCCNc1ccnc2cc(Cl)ccc12
Plasmodium falciparum [2]
  IC50: 4000 nM
Plasmodium falciparum [3]
  IC50: 31 nM

## CCCCCCCCCCCC(=O)NCCCC(C)Nc1ccnc2cc(Cl)ccc12 (stereo unspecified)
Plasmodium falciparum [4]
  IC50: 45 nM
Plasmodium falciparum [5]
  IC50: 160000 nM

## COc1ccc(OC)c2c1CC(Nc1ccnc3cc(Cl)ccc13)C2
Plasmodium berghei [6]
  IC50: 480 nM

## CCOC(=O)c1nn(CCNc2ccnc3cc(Cl)ccc23)c2c1C(c1ccc(CC)cc1)C(C#N)=C(N)O2 (stereo unspecified)
Plasmodium falciparum [7]
  EC50: 13 nM
[8]
  CC50 at 48 h: 17600 nM
Plasmodium falciparum [9]
  EC50: 20 nM

## CCOC(=O)c1nn(CCNc2ccnc3cc(Cl)ccc23)c2c1C(c1ccc(O)cc1)C(C#N)=C(N)O2 (stereo unspecified)
Plasmodium falciparum [7]
  EC50: 26 nM
[8]
  CC50 at 48 h: 9240 nM
Plasmodium falciparum [9]
  EC50: 7120 nM

## CC(C)Cc1ccc(C(C)C(=O)NCCNc2ccnc3cc(Cl)ccc23)cc1 (stereo unspecified)
Plasmodium falciparum [2]
  IC50: 201 nM
Plasmodium falciparum [3]
  IC50: 125 nM

## CC1(C)c2ccccc2-c2cc(Cl)c(NC(=O)CNCCCNc3ccnc4cc(Cl)ccc34)cc21
[10]
  IC50: 6330 nM
Plasmodium falciparum [11]
  IC50: 270 nM

## COc1ccc2c(c1)C[C@H](Nc1ccnc3cc(Cl)ccc13)C2
Plasmodium berghei [6]
  IC50: 590 nM

## C[C@H]1[C@H](OC(=O)CCC(=O)OCCNc2ccnc3cc(Cl)ccc23)O[C@@H]2O[C@@]3(C)CC[C@H]4[C@H](C)CC[C@@H]1[C@@]24OO3
Plasmodium falciparum [12]
  EC50: 1.7 nM
Plasmodium falciparum [13]
  EC50: 2.3 nM
Plasmodium falciparum [14]
  EC50: 4.5 nM

## CCOC(=O)c1nn(CCNc2ccnc3cc(Cl)ccc23)c2c1C(c1ccco1)C(C#N)=C(N)O2 (stereo unspecified)
Plasmodium falciparum [7]
  EC50: 113 nM
[8]
  CC50 at 48 h: 84500 nM
Plasmodium falciparum [9]
  EC50: 1610 nM

## O=C(CNCCCNc1ccnc2cc(Cl)ccc12)Nc1cc2c(cc1Cl)-c1ccccc1C2
[10]
  IC50: 11200 nM
Plasmodium falciparum [11]
  IC50: 346 nM

## OB1OCc2ccc(OCc3cn(CCN4CCN(c5ccnc6cc(Cl)ccc56)CC4)nn3)cc21
Plasmodium falciparum [15]
  IC50: 4860 nM
[16]
  IC50 at 24 h: 82400 nM
Plasmodium falciparum [17]
  IC50: 5310 nM

## C#CCCCN(CCNc1ccnc2cc(Cl)ccc12)C(=O)CCC(=O)O[C@@H]1O[C@@H]2O[C@@]3(C)CC[C@H]4[C@H](C)CC[C@@H]([C@H]1C)[C@@]24OO3
Plasmodium falciparum [12]
  EC50: 1.3 nM
Plasmodium falciparum [13]
  EC50: 1.6 nM
Plasmodium falciparum [14]
  EC50: 3.5 nM

## C#CCNc1ccnc2cc(Cl)ccc12
Plasmodium falciparum [18]
  IC50: 377 nM
Plasmodium falciparum [19]
  IC50: 405 nM
HepG2 [20]
  MLD50: 407 µM

## O=C(O)C(Cc1c[nH]c2ccccc12)Nc1ccnc2cc(Cl)ccc12 (stereo unspecified)
Plasmodium falciparum [2]
  IC50: 5000 nM
Plasmodium falciparum [3]
  IC50: 8000 nM

## N=C(N=C(N)N)SCCCNc1cc(C(F)(F)F)nc2c(C(F)(F)F)cccc12
Plasmodium falciparum [21]
  IC50: 5540 nM
Plasmodium falciparum [22]
  IC50: 7210 nM
[23]
  CC50: > 9170 nM

## Clc1ccc2c(NC3Cc4ccccc4C3)ccnc2c1
Plasmodium berghei [6]
  IC50: 600 nM

## CCCCC1(CCCC)c2ccccc2-c2cc(Cl)c(NC(=O)CNCCCNc3ccnc4cc(Cl)ccc34)cc21
[10]
  IC50: 15900 nM
Plasmodium falciparum [11]
  IC50: 139 nM

## N#Cc1ccc2c(CNCCCNc3ccnc4cc(Cl)ccc34)csc2c1
Plasmodium falciparum [24]
  IC50: 50.2 nM
Plasmodium falciparum [25]
  IC50: 18.6 nM

## CCOP(=O)(CCCN(O)C(=O)CCC(=O)NCCNc1ccnc2cc(Cl)ccc12)OCC
Plasmodium falciparum [26]
  IC50: 4200 nM

## Clc1ccc2c(NNc3cccnc3)ccnc2c1
Plasmodium falciparum [1]
  IC50: 2210 nM

## CC1(C)[C@@H]2CC=C(CC(=O)Nc3ccnc4ccccc34)[C@H]1C2
Plasmodium falciparum [27]
  EC50: 26400 nM
Plasmodium falciparum [28]
  EC50: 23400 nM
HepG2 [29]
  CC50: 3890 nM
Plasmodium falciparum [30]
  EC50: 13900 nM

## Clc1ccc2c(NCCNCc3csc4ccccc34)ccnc2c1
Plasmodium falciparum [24]
  IC50: > 500 nM
Plasmodium falciparum [25]
  IC50: 14.4 nM

## O=[N+]([O-])c1ccc(/C=N/Nc2ccnc3cc(Cl)ccc23)cc1
Plasmodium falciparum [31]
  IC50: 9 nM
Plasmodium falciparum [32]
  IC50: 9 nM

## NCCNc1ccnc2cc(Cl)ccc12
Plasmodium falciparum [18]
  IC50: 273 nM
Plasmodium falciparum [19]
  IC50: 218 nM
HepG2 [20]
  MLD50: 179 µM

## C[C@@H]1CC[C@H]2[C@@H](C)C(=O)O[C@@H]3O[C@@]4(C)CC[C@@H]1[C@]32OO4 [ARTEMISININ]
Plasmodium falciparum [7]
  EC50: 1 nM
[8]
  CC50 at 48 h: 435000 nM
Plasmodium falciparum [33]
  IC50: 5 nM
Plasmodium falciparum [9]
  EC50: 1 nM

## C[C@H]1[C@H](OC(=O)CCC(=O)O)O[C@@H]2O[C@@]3(C)CC[C@H]4[C@H](C)CC[C@@H]1[C@@]24OO3 [ARTESUNATE]
Plasmodium falciparum [34]
  IC50: < 5200 nM

## CCN(CC)CCCC(C)Nc1ccnc2cc(Cl)ccc12 (stereo unspecified) [CHLOROQUINE]
[35]
  CC50 at 72 h: 86800 nM
Plasmodium falciparum [7]
  EC50: 2 nM
Plasmodium falciparum [9]
  EC50: 330 nM

## O=C(O)c1cn(C2CC2)c2cc(N3CCNCC3)c(F)cc2c1=O [CIPROFLOXACIN]
Plasmodium berghei [36]
  IC50: 60 nM
